From patent US10781204B2, “TYK2 inhibitors and uses thereof” (Nimbus Lakshmi, Inc., priority 2015, dated 2020)

Columns and labels:
[1] = molecular target: TYK2 (Homo sapiens (Human), UniProt P29597); assay: Tyk2 radioactive kinase assay; assay type: biochemical; settings: ATP 10 μM
In short: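 Recombinant human TYK2 (Invitrogen) was mixed with 20 μM peptide substrate in a buffer of 20 mM Hepes pH 7.5, 10 mM MgCl2, 1 mM EGTA, 0.02% Brij35, 0.02 mg/mL BSA, 0.1 mM […], 2 mM DTT and 1% DMSO, and compounds in DMSO were added. Adding ^33P-ATP (10 μM ATP) started the reaction, which ran 120 min at room temperature. Mixtures were then spotted onto P81 ion-exchange paper, washed thoroughly in 0.75% phosphoric acid, and counted for radioactivity.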

[2] = molecular target: JAK2 (Homo sapiens (Human), UniProt O60674); assay: JAK2 radioactive kinase assay; assay type: biochemical; settings: ATP 10 μM
Chain of JAK2 (O60674 whole entry): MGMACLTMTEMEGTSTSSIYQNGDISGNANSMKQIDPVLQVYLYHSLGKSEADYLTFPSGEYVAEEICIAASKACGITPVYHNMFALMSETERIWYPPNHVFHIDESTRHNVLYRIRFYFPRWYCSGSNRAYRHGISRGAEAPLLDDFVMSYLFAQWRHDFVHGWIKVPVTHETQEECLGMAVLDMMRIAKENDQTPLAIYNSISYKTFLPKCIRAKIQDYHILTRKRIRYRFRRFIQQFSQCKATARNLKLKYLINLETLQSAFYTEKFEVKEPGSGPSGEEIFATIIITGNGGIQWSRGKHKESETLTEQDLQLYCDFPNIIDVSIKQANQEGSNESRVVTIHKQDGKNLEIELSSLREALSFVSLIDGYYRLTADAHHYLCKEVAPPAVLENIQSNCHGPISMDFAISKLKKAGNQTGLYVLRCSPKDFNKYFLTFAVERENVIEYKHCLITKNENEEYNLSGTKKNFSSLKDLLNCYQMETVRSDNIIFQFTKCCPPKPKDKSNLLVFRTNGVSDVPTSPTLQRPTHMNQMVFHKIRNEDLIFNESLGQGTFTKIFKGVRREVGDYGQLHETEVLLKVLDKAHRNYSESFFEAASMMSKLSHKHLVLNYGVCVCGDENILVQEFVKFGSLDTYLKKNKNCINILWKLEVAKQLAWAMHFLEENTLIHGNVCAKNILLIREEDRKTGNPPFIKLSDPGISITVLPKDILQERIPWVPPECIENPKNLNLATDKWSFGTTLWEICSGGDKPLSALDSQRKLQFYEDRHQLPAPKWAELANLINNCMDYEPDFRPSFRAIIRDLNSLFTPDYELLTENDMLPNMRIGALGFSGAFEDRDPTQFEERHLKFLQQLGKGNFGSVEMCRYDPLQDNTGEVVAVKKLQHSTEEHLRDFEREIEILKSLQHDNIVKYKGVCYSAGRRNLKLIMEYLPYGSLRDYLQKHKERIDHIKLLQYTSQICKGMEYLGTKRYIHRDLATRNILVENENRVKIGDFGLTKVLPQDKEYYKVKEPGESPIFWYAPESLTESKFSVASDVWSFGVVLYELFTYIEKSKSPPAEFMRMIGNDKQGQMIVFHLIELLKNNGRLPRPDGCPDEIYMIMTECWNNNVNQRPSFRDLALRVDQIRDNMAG
In short: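 Radiometric assay in Hepes pH 7.5, MgCl2, EGTA, Brij35, BSA, DTT, 1% DMSO, with 10 μM [33P]ATP, 120 min at room temp; P81 paper capture and counting. […]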

[3] = system: Tyk2-pSTAT4 (IL-12 induced pSTAT4); assay: IL-12 induced pSTAT4 in human PBMC; assay type: cell-based; settings: 1.7 ng/mL IL-12, 30 minutes
In short: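 pSTAT4 and total STAT4 quantified by MSD in cell lysates after 30 minutes of 1.7 ng/mL IL-12 stimulation. Beforehand, compound (0.1% DMSO final) sat 1 hr at 37 C on 200,000 thawed buffy-coat PBMC per well in serum-containing medium.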

[4] = system: JAK2-pSTAT5 (GM-CSF induced pSTAT5); assay: GM-CSF induced pSTAT5 in human PBMC; assay type: cell-based; settings: 5 ng/mL GM-CSF
In short: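 Thawed human PBMC, 200,000 per well in serum-containing medium, were preincubated 1 hr at 37 C with compound in 0.1% DMSO. GM-CSF at 5 ng/mL final was added for 20 minutes, then pSTAT5 and total STAT5 in lysates were measured by MSD immunoassay.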

Chain of TYK2 (P29597 whole entry): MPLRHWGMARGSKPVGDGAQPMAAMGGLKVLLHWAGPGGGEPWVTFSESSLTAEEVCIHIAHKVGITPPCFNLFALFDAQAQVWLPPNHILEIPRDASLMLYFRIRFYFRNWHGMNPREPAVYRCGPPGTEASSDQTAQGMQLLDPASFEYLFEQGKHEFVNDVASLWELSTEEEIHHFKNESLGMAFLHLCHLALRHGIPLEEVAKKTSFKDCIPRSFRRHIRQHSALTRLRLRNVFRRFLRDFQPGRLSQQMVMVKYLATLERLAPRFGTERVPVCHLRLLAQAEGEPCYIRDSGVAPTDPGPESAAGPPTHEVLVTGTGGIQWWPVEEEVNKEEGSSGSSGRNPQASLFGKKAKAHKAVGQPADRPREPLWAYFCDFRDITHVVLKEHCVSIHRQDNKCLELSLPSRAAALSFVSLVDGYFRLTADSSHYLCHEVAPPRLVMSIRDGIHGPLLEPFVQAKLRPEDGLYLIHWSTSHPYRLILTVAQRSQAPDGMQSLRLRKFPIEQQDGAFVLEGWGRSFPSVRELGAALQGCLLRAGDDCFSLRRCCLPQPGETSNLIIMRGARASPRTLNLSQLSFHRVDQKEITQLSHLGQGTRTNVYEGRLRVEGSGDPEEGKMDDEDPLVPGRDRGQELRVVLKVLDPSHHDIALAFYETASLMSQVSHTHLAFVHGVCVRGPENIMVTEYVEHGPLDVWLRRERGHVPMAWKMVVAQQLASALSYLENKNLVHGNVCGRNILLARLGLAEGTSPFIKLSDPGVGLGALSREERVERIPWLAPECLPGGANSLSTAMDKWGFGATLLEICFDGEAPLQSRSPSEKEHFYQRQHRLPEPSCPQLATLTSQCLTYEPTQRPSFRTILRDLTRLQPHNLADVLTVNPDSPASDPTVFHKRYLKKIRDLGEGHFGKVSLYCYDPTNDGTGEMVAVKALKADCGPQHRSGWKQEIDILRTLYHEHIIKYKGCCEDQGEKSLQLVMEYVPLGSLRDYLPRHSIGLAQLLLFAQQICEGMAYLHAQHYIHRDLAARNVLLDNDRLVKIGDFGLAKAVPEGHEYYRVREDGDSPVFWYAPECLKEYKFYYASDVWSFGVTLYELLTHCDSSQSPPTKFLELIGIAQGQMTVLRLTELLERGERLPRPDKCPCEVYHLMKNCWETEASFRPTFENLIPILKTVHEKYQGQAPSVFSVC

Structure (SMILES)	Ki [1]	Ki [2]	EC50 ([3]; Homo sapiens, PBMC, 0.5 h)	EC50 ([4]; Homo sapiens, PBMC, 20 min)	EC50 [3]	EC50 ([4]; 20 minutes)
N#Cc1cccc(F)c1-c1cc(-n2ccc(N3C[C@H]4CC[C@@H](C3)O4)n2)c2c(n1)CNC2=O [I-188, 2-(4-(3-((1R,5S)-8-oxa-3-azabicyclo[3.2.1]octan-3-yl)-1H-pyrazol-1-yl)-5-oxo-6,7-dihydro-5H-pyrrolo[3,4-b]pyridin-2-yl)-3-fluorobenzonitrile]	0.009 to 0.1 nM	0.1 to 10 nM	100 to 2000 nM	100 to 2000 nM	–	–
N#Cc1cccc(F)c1-c1cc(-n2ccc(N3CCC[C@@H](C(N)=O)C3)n2)c2c(n1)CNC2=O [I-125, (R)-1-(1-(2-(2-cyano-6-fluorophenyl)-5-oxo-6,7-dihydro-5H-pyrrolo[3,4-b]pyridin-4-yl)-1H-pyrazol-3-yl)piperidine-3-carboxamide]	0.1 to 10 nM	10 to 100 nM	100 to 2000 nM	100 to 2000 nM	–	–
N#Cc1cccc(F)c1-c1cc(-n2ccc([C@@H]3CCCO3)n2)c2c(n1)CNC2=O [I-104, (S)-3-fluoro-2-(5-oxo-4-(3-(tetrahydrofuran-2-yl)-1H-pyrazol-1-yl)-6,7-dihydro-5H-pyrrolo[3,4-b]pyridin-2-yl)benzonitrile]	0.1 to 10 nM	100 to 1000 nM	100 to 2000 nM	100 to 2000 nM	–	–
[2H]C1([2H])NC(=O)c2c(-n3ccc(N4C([2H])([2H])C[C@](O)(C([2H])([2H])[2H])C4([2H])[2H])n3)cc(-c3c(F)cccc3C#N)nc21 [I-207, (R)-3-fluoro-2-(4-(3-(3-hydroxy-3-(methyl-d3)pyrrolidin-1-yl-2,2,5,5-d4)-1H-pyrazol-1-yl)-5-oxo-6,7-dihydro-5H-pyrrolo[3,4-b]pyridin-2-yl-7,7-d2)benzonitrile]	0.1 to 10 nM	10 to 100 nM	30 to 100 nM	100 to 2000 nM	–	–
CC(=O)N[C@H]1CCCN(c2ccn(-c3cc(-c4c(F)cccc4C#N)nc4c3C(=O)NC4)n2)C1 [I-130, (S)-N-(1-(1-(2-(2-cyano-6-fluorophenyl)-5-oxo-6,7-dihydro-5H-pyrrolo[3,4-b]pyridin-4-yl)-1H-pyrazol-3-yl)piperidin-3-yl)acetamide]	0.1 to 10 nM	10 to 100 nM	100 to 2000 nM	100 to 2000 nM	–	–
N#Cc1cccc(F)c1-c1cc(-n2cc3c(n2)CNC3)c2c(n1)CNC2=O [I-124, 2-(4-(5,6-dihydropyrrolo[3,4-c]pyrazol-2 (4H)-yl)-5-oxo-6,7-dihydro-5H-pyrrolo[3,4-b]pyridin-2-yl)-3-fluorobenzonitrile]	10 to 100 nM	100 to 1000 nM	> 2000 nM	> 2000 nM	–	–
N#Cc1cccc(F)c1-c1cc(-n2ccc(N3CCC[C@H](C(=O)N4CCCC4)C3)n2)c2c(n1)CNC2=O [I-168, (S)-3-fluoro-2-(5-oxo-4-(3-(3-(pyrrolidine-1-carbonyl)piperidin-1-yl)-1H-pyrazol-1-yl)-6,7-dihydro-5H-pyrrolo[3,4-b]pyridin-2-yl)benzonitrile]	0.1 to 10 nM	0.1 to 10 nM	100 to 2000 nM	100 to 2000 nM	–	–
CO[C@@H]1CN(c2ccn(-c3cc(-c4c(F)cccc4C#N)nc4c3C(=O)NC4)n2)CC[C@H]1O [I-201, 3-fluoro-2-(4-(3-((3R,4R)-4-hydroxy-3-methoxypiperidin-1-yl)-1H-pyrazol-1-yl)-5-oxo-6,7-dihydro-5H-pyrrolo[3,4-b]pyridin-2-yl)benzonitrile]	0.1 to 10 nM	10 to 100 nM	–	–	30 to 100 nM	100 to 2000 nM
CS(=O)(=O)NC1CCN(c2ccn(-c3cc(-c4c(F)cccc4C#N)nc4c3C(=O)NC4)n2)C1 (stereo not drawn) [I-120, N-(1-(1-(2-(2-cyano-6-fluorophenyl)-5-oxo-6,7-dihydro-5H-pyrrolo[3,4-b]pyridin-4-yl)-1H-pyrazol-3-yl)pyrrolidin-3-yl)methanesulfonamide]	0.1 to 10 nM	0.1 to 10 nM	100 to 2000 nM	100 to 2000 nM	–	–
N#Cc1cccc(F)c1-c1cc(-n2ccc(N3CCCC(N4CCOCC4)C3)n2)c2c(n1)CNC2=O (stereo not drawn) [I-149, 3-fluoro-2-(4-(3-(3-morpholinopiperidin-1-yl)-1H-pyrazol-1-yl)-5-oxo-6,7-dihydro-5H-pyrrolo[3,4-b]pyridin-2-yl)benzonitrile]	0.009 to 0.1 nM	0.1 to 10 nM	100 to 2000 nM	100 to 2000 nM	–	–
C[C@H]1CC[C@@H](O)CN1c1ccn(-c2cc(-c3c(F)cccc3C#N)nc3c2C(=O)NC3)n1 [I-113, 3-fluoro-2-(4-(3-((2S,5R)-5-hydroxy-2-methylpiperidin-1-yl)-1H-pyrazol-1-yl)-5-oxo-6,7-dihydro-5H-pyrrolo[3,4-b]pyridin-2-yl)benzonitrile]	0.1 to 10 nM	10 to 100 nM	100 to 2000 nM	100 to 2000 nM	–	–
CN1CCN(c2ccn(-c3cc(-c4c(F)cccc4C#N)nc4c3C(=O)NC4)n2)CC1 [I-6, 3-fluoro-2-(4-(3-(4-methylpiperazin-1-yl)-1H-pyrazol-1-yl)-5-oxo-6,7-dihydro-5H-pyrrolo[3,4-b]pyridin-2-yl)benzonitrile]	0.1 to 10 nM	0.1 to 10 nM	100 to 2000 nM	> 2000 nM	–	–
N#Cc1cccc(F)c1-c1cc(-n2ccc(N3CCC[C@](O)(C(F)(F)F)C3)n2)c2c(n1)CNC2=O [I-88, (R)-3-fluoro-2-(4-(3-(3-hydroxy-3-(trifluoromethyl)piperidin-1-yl)-1H-pyrazol-1-yl)-5-oxo-6,7-dihydro-5H-pyrrolo[3,4-b]pyridin-2-yl)benzonitrile]	0.009 to 0.1 nM	10 to 100 nM	100 to 2000 nM	> 2000 nM	–	–
N#Cc1cccc(F)c1-c1cc(-n2ccc(N3CCOCC(O)C3)n2)c2c(n1)CNC2=O (stereo not drawn) [I-121, 3-fluoro-2-(4-(3-(6-hydroxy-1,4-oxazepan-4-yl)-1H-pyrazol-1-yl)-5-oxo-6,7-dihydro-5H-pyrrolo[3,4-b]pyridin-2-yl)benzonitrile]	0.1 to 10 nM	10 to 100 nM	30 to 100 nM	> 2000 nM	–	–
CO[C@@H]1CCN(c2ccn(-c3cc(-c4c(F)cccc4C#N)nc4c3C(=O)NC4)n2)C[C@]1(C)O [I-228, 3-fluoro-2-(4-(3-((3S,4R)-3-hydroxy-4-methoxy-3-methylpiperidin-1-yl)-1H-pyrazol-1-yl)-5-oxo-6,7-dihydro-5H-pyrrolo[3,4-b]pyridin-2-yl)benzonitrile]	0.1 to 10 nM	10 to 100 nM	–	–	100 to 2000 nM	100 to 2000 nM
N#Cc1cccc(F)c1-c1cc(-n2ccc(N3CCC[C@H](O)C3)n2)c2c(n1)CNC2=O [I-70, (S)-3-fluoro-2-(4-(3-(3-hydroxypiperidin-1-yl)-1H-pyrazol-1-yl)-5-oxo-6,7-dihydro-5H-pyrrolo[3,4-b]pyridin-2-yl)benzonitrile]	0.1 to 10 nM	0.1 to 10 nM	100 to 2000 nM	100 to 2000 nM	–	–
CO[C@H]1CN(c2ccn(-c3cc(-c4c(F)cccc4C#N)nc4c3C(=O)NC4)n2)C[C@@]1(C)OC [I-230, 2-(4-(3-((3R,4S)-3,4-dimethoxy-3-methylpyrrolidin-1-yl)-1H-pyrazol-1-yl)-5-oxo-6,7-dihydro-5H-pyrrolo[3,4-b]pyridin-2-yl)-3-fluorobenzonitrile]	0.1 to 10 nM	0.1 to 10 nM	100 to 2000 nM	100 to 2000 nM	–	–
N#Cc1cccc(F)c1-c1cc(-n2ccc(N3CC[C@H](O)[C@H](O)C3)n2)c2c(n1)CNC2=O [I-136, 2-(4-(3-((3R,4S)-3,4-dihydroxypiperidin-1-yl)-1H-pyrazol-1-yl)-5-oxo-6,7-dihydro-5H-pyrrolo[3,4-b]pyridin-2-yl)-3-fluorobenzonitrile]	0.009 to 0.1 nM	0.1 to 10 nM	30 to 100 nM	> 2000 nM	–	–
CN1CCN([C@@H]2CCCN(c3ccn(-c4cc(-c5c(F)cccc5C#N)nc5c4C(=O)NC5)n3)C2)CC1 [I-156, (R)-3-fluoro-2-(4-(3-(3-(4-methylpiperazin-1-yl)piperidin-1-yl)-1H-pyrazol-1-yl)-5-oxo-6,7-dihydro-5H-pyrrolo[3,4-b]pyridin-2-yl)benzonitrile]	0.1 to 10 nM	10 to 100 nM	100 to 2000 nM	100 to 2000 nM	–	–
CO[C@H]1CN(c2ccn(-c3cc(-c4c(F)cccc4C#N)nc4c3C(=O)NC4)n2)C[C@@]1(C)O [I-226, 3-fluoro-2-(4-(3-((3R,4S)-3-hydroxy-4-methoxy-3-methyl-pyrrolidin-1-yl)-1H-pyrazol-1-yl)-5-oxo-6,7-dihydro-5H-pyrrolo[3,4-b]pyridin-2-yl)benzonitrile]	0.1 to 10 nM	0.1 to 10 nM	30 to 100 nM	100 to 2000 nM	–	–
CO[C@@H]1CCN(c2ccn(-c3cc(-c4c(F)cccc4C#N)nc4c3C(=O)NC4)n2)C[C@H]1O [I-193, 3-fluoro-2-(4-(3-((3R,4R)-3-hydroxy-4-methoxypiperidin-1-yl)-1H-pyrazol-1-yl)-5-oxo-6,7-dihydro-5H-pyrrolo[3,4-b]pyridin-2-yl)benzonitrile]	0.1 to 10 nM	0.1 to 10 nM	100 to 2000 nM	> 2000 nM	–	–
